Tests used:
HCV genotype 1 [1] = assay: Phase 2A clinical trial of RO4588161 with Pegasys with or without ribavirin: HCV RNA viral load and viral response (Roche COBAS TaqMan HCV Test); type: in vivo, human; conditions: for mean change in viral concentrations (HCV RNA) from baseline at week 4: 4 weeks
Text: (§1) This was a phase 2A, multi-center, randomized, double-blinded (RO4588161 and ribavirin were double-blinded and Pegasys was open labeled), active-controlled, with a parallel-group study which is ongoing. A screening period (time from the first screening assessment to the first administration of test drug) of 35 days preceded the treatment portion of the trial (FIG. 1). The HCV genotype and HCV RNA titer of each patient was confirmed during the screening period and only treatment-naïve patients with HCV genotype-1 and HCV RNA titer […] were eligible for enrollment.
One hundred and seven male and female patients between 18 and 66 years of age were enrolled into the study. Patients were randomized into four treatment groups: • Group A/Dual 1500 [RO4588161 1500 mg oral, twice daily+Pegasys 180 μg subcutaneous, once weeky] for 4 weeks-21 patients, • Group B/Dual 3000 [RO4588161 3000 mg oral, twice daily+Pegasys 180 μg subcutaneous, once weekly] for 4 weeks-34 patients, • Group C/Triple 1500 [RO4588161 1500 mg oral, twice daily+Pegasys 180 μg subcutaneous, once weekly+ribavirin 1000 mg (<75 kg) or 1200 mg […] oral daily] for 4 weeks-31 patients or • Group D/standard of care (SOC) [Pegasys 180 μg subcutaneous, once weekly+ribavirin 1000 mg (<75 kg) or 1200 mg (≧75 kg) oral daily] for 4 weeks-21 patients
Patients meeting all eligibility criteria were randomized to receive RO4588161 in combination with Pegasys with or without ribavirin for 4 weeks or to SOC.
All patients who received at least one dose of study medication would continue to receive open label Pegasys 180 μg sc qw and ribavirin 1000 mg (<75 kg) or 1200 mg (≧75 kg) po qd to complete a total treatment period of 48 weeks.
Randomization was stratified by the PK subcohort (sparse PK versus intensive PK) in a 2:3:3:2 ratio into the following treatment groups (Group A/Dual 1500˜20, Group B/Dual 3000˜30, Group C/Triple 1500˜30, Group D/SOC˜20).
All patients were to have a safety follow up visit at week 8, 4 weeks after the last dose of the experimental drug combination. Patients were to have this 4 week safety follow up visit during their treatment with the standard of care therapy. Patients who have completed a full 48-week course of therapy were followed for 24 weeks post treatment completion.
Pharmacodynamic analysis included the assessment of serum viral load, and viral response at individual clinical visits and an assessment of antiviral resistance development with RO4588161 given in combination with Pegasys with or without ribavirin in treatment naïve patients with chronic HCV genotype 1 virus infection. Viral response was defined as the percentage of patients with undetectable HCV RNA as measured by the Roche COBAS TaqMan HCV Test (<15 IU/mL). Pharmacodynamic data were presented by listings, summary statistics (including means, medians, standard errors, confidence intervals for means, ranges, coefficients of variation, proportions of patients with response and confidence intervals for proportions) and plots of means over time.

[2] = Phase 2A clinical trial of RO4588161: premature withdrawal for safety reasons; type: in vivo, human
Text: as §1
One hundred and seven male and female patients between 18 and 66 years of age were enrolled into the study. Patients were randomized into four treatment groups: • Group A/Dual 1500 [RO4588161 1500 mg oral, twice daily+Pegasys 180 μg subcutaneous, once weeky] for 4 weeks-21 patients, • Group B/Dual 3000 [RO4588161 3000 mg oral, twice daily+Pegasys 180 μg subcutaneous, once weekly] for 4 weeks-34 patients, • Group C/Triple 1500 [RO4588161 1500 mg oral, twice daily+Pegasys 180 μg subcutaneous, once weekly+ribavirin 1000 mg (<75 kg) or 1200 mg […] oral daily] for 4 weeks-31 patients or • Group D/standard of care (SOC) [Pegasys 180 μg subcutaneous, once weekly+ribavirin 1000 mg (<75 kg) or 1200 mg (≧75 kg) oral daily] for 4 weeks-21 patients […]

HCV genotype 1 [3] = assay: Phase II clinical trial of RO5024048 with Pegasys and ribavirin: plasma HCV RNA; type: in vivo, human
Text: Twenty-five (25) patients per Cohort of RO5024048 were enrolled. Twenty (20) patients per cohort received RO5024048 in combination with standard of care (SOC) and five (5) patients per cohort were randomized to receive SOC with a RO5024048 placebo. Patients were screened up to 56 days prior to enrollment. On Day −1, patients visited the clinic for pre-dose assessments. On Day 1, patients received an oral dose of study drug RO5024048 or placebo and Pegasys/ribovarin in the morning with a light meal and at least 240 mL of water.
A majority of dosing occurred on an outpatient basis. Periodically, patients returned to the clinic for study assessments. Early morning on Days 7, 14, 21, and 28, patients were asked to report to the clinic after an overnight fast. Patients received their RO5024048/placebo in combination with Pegasys and Ribovarin with a light meal and 240 mL of water in the morning in the clinic. Patients were followed through Day 56 (28 days after dosing is completed).
After completing four weeks of the combination-dosing regimen followed by at least 4 weeks of SOC dosing (RO5024048 washout), all patients were eligible to receive up to 40 weeks, depending upon genotype, of open label standard of care (SOC) dosing with Pegasys plus ribavirin. Genotype 2 or 3 subjects enrolling in Cohort 4 will receive a total of 24 weeks of Pegasys plus ribovarin. An overview of the study design is outlined in Table 1.

[4] = human, in vivo; cited from earlier work
HCV = conditions: cited from earlier work

Compound: CC(C)C(=O)OC[C@@]1(N=[N+]=[N-])O[C@@H](n2ccc(N)nc2=O)[C@H](OC(=O)C(C)C)[C@@H]1OC(=O)C(C)C [RO4588161, Isobutyric acid (2R,3S,4R,5R)-5-(4-amino-2-oxo-2H-pyrimidin-1-yl)-2-azido-3,4-bis-isobutyryloxy-tetrahydro-furan-2-ylmethyl ester]
- mean change in viral concentrations (HCV RNA) from baseline at week 4 (HCV genotype 1 [1]; Dual 1500: RO4588161 1500 mg oral twice daily + Pegasys 180 μg sc once weekly): −3.6 log10 IU/mL
- difference in mean change in viral concentrations (HCV genotype 1 [1]; Dual 3000 vs Dual 1500, week 4, printed as 'minus 0.9'): 0.9 log10 IU/mL
- mean change in viral concentrations (HCV RNA) from baseline at week 4 (HCV genotype 1 [1]; Triple 1500: RO4588161 1500 mg oral twice daily + Pegasys 180 μg sc once weekly + ribavirin 1000/1200 mg oral daily): −5.2 log10 IU/mL
- patients achieving RVR4 (undetectable HCV RNA at four weeks of treatment) (HCV genotype 1 [1]; Triple 1500 group (N=31)): 23 out of the 31
- patients achieving sustained virological response (SVR) at 24 weeks post treatment completion (HCV genotype 1 [1]; Triple 1500 group, of the thirteen patients undetectable at two weeks): Eleven
- antiviral effect, non-overlapping 95% confidence intervals (HCV genotype 1 [1]; Triple 1500 over Dual 1500 and SOC): superior antiviral effect
- difference in mean change in viral concentrations (HCV genotype 1 [1]; Triple 1500 vs Dual 1500, week 4, printed as 'minus 1.6'): 1.6 log10 IU/mL
- difference in mean change in viral concentrations (HCV genotype 1 [1]; Triple 1500 vs SOC, week 4, printed as 'minus 2.8'): 2.8 log10 IU/mL
- decrease in the mean HCV RNA (IU/mL) from baseline at week 4 (HCV genotype 1 [1]; all RO4588161 containing groups (Dual 1500, Dual 3000, Triple 1500), 4 weeks treatment, treatment-naive HCV genotype-1 patients): ≥ 3.6 log10
- earliest assessment at which declines in HCV RNA were observed, following the first dose (HCV genotype 1 [1]; first assessment): 72 h
- plasma viral load following treatment (HCV genotype 1 [1]; treatment with RO4588161, Pegasys and ribavirin): Dose- and time-dependent decreases
- patients who prematurely withdrew for safety reasons from the drug ([2]; among the 104 evaluable patients): 43 patients

Compound: CC(C)C(=O)OC[C@H]1O[C@@H](n2ccc(N)nc2=O)[C@](C)(F)[C@@H]1OC(=O)C(C)C [RO5024048, Isobutyric acid (2R,3R,4R,5R)-5-(4-amino-2-oxo-2H-pyrimidin-1-yl)-4-fluoro-3-isobutyryloxy-4-methyl-tetrahydro-furan-2-ylmethyl ester]
- whether HCV RNA could be detected at Week 8 (HCV genotype 1 [3]; 1500 mg RO5024048 + Pegasys + ribavirin, patients not undetectable until day 17 (FIG. 4) or day 28 (FIG. 5)): mixed
- HCV RNA status on day 56 (Week 8) (HCV genotype 1 [3]; 1500 mg RO5024048 + Pegasys + ribavirin, patients with undetectable HCV RNA at 14 days of treatment (FIG. 3)): all HCV RNA negative
- decreases in plasma viral load (HCV genotype 1 [3]; four-week treatment, 1500 mg RO5024048 twice daily with SOC dosing of Pegasys and ribavirin, compared with other dose levels): most notable decreases

Compound: NC(=O)c1ncn([C@@H]2O[C@H](CO)[C@@H](O)[C@H]2O)n1 [ribavirin, 1-((2R,3R,4S,5R)-3,4-Dihydroxy-5-hydroxymethyl-tetrahydro-furan-2-yl)-1H-[1,2,4]triazole-3-carboxylic acid amide]
- patients with hemolytic anemia requiring dose reduction or discontinuation of ribavirin therapy [4]: 10-20 % of patients
- patients in whom serum amino transferase levels are reduced to normal (HCV; monotherapy): 40 % of patients
- effect on serum levels of HCV-RNA (HCV; ribavirin monotherapy): does not lower
- patients who prematurely withdrew for safety reasons from the drug ([2]; both, human, in vivo, 4 weeks): 5 patients
